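96-well plates; 48 h exposure; 5 concentrations. Endpoints by linear interpolation between flanking doses. Not reached: highest tested concentration assigned. Here, GI50 denotes the concentration required for 50% inhibition of growth. TGI marks complete inhibition of growth.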
How the values were obtained:
Assay in all cases: NCI tumour cell line growth inhibition, 48 h
NCI-H460 lung = system: NCI-H460 lung
MOLT-4 leukemia = system: MOLT-4 leukemia
SK-MEL-2 melanoma = system: SK-MEL-2 melanoma
SR leukemia = system: SR leukemia
KM12 colon = system: KM12 colon
NCI-H226 lung = system: NCI-H226 lung
NCI/ADR-RES ovarian = system: NCI/ADR-RES ovarian
HCC-2998 colon = system: HCC-2998 colon
CAKI-1 renal = system: CAKI-1 renal
MDA-MB-435 = system: MDA-MB-435
CCRF-CEM leukemia = system: CCRF-CEM leukemia
A549 NSCLC = system: A549 NSCLC
ACHN renal = system: ACHN renal
U251 CNS = system: U251 CNS
HCT-15 colon = system: HCT-15 colon
OVCAR-8 ovarian = system: OVCAR-8 ovarian
SW-620 colon = system: SW-620 colon
TK-10 renal = system: TK-10 renal
UO-31 renal = system: UO-31 renal
DU-145 prostate = system: DU-145 prostate
HOP-92 NSCLC = system: HOP-92 NSCLC
RXF 393 renal = system: RXF 393 renal
PC-3 prostate = system: PC-3 prostate
UACC-62 melanoma = system: UACC-62 melanoma
MALME-3M melanoma = system: MALME-3M melanoma
IGROV1 ovarian = system: IGROV1 ovarian
SK-MEL-28 melanoma = system: SK-MEL-28 melanoma
HT29 colon = system: HT29 colon
SF-268 CNS = system: SF-268 CNS
HCT-116 colon = system: HCT-116 colon
SNB-75 CNS = system: SNB-75 CNS
OVCAR-4 ovarian = system: OVCAR-4 ovarian
LOX IMVI melanoma = system: LOX IMVI melanoma
SF-295 CNS = system: SF-295 CNS
UACC-257 melanoma = system: UACC-257 melanoma
MCF7 breast = system: MCF7 breast
HL-60(TB) leukemia = system: HL-60(TB) leukemia
M14 melanoma = system: M14 melanoma
SK-OV-3 ovarian = system: SK-OV-3 ovarian
SN12C renal = system: SN12C renal
SK-MEL-5 melanoma = system: SK-MEL-5 melanoma
RPMI-8226 leukemia = system: RPMI-8226 leukemia
NCI-H522 lung = system: NCI-H522 lung
SF-539 CNS = system: SF-539 CNS
T-47D breast = system: T-47D breast
HS 578T breast = system: HS 578T breast
HOP-62 NSCLC = system: HOP-62 NSCLC
786-0 renal = system: 786-0 renal
SNB-19 CNS = system: SNB-19 CNS
K-562 leukemia = system: K-562 leukemia
A498 renal = system: A498 renal
COLO 205 colon = system: COLO 205 colon
MDA-MB-231 breast = system: MDA-MB-231 breast
BT-549 breast = system: BT-549 breast
OVCAR-3 ovarian = system: OVCAR-3 ovarian
NCI-H23 lung = system: NCI-H23 lung
OVCAR-5 ovarian = system: OVCAR-5 ovarian
EKVX NSCLC = system: EKVX NSCLC

C(=C\c1ccc(-c2cn3cc(/C=C/C=N/NC4=NCCN4)ccc3n2)cc1)/C=N/NC1=NCCN1
TGI (NCI-H460 lung): 1.92 µM | TGI (MOLT-4 leukemia): 5.22 µM | TGI (SK-MEL-2 melanoma): 4.51 µM | TGI (SR leukemia): 3.54 µM | TGI (KM12 colon): 4.89 µM | TGI (NCI-H226 lung): 3.27 µM | TGI (NCI/ADR-RES ovarian): > 44.9 µM | TGI (HCC-2998 colon): 2.6 µM | TGI (CAKI-1 renal): 5.61 µM | TGI (MDA-MB-435): 3.54 µM | TGI (CCRF-CEM leukemia): 4.18 µM | TGI (A549 NSCLC): 1.98 µM | TGI (ACHN renal): 3.01 µM | TGI (U251 CNS): 2.26 µM | TGI (HCT-15 colon): > 100 µM | TGI (OVCAR-8 ovarian): 2.67 µM | TGI (SW-620 colon): 0.77 µM | TGI (TK-10 renal): 65.4 µM | TGI (UO-31 renal): 19.8 µM | TGI (DU-145 prostate): 5.44 µM | TGI (HOP-92 NSCLC): 2.51 µM | TGI (RXF 393 renal): 4.79 µM | TGI (PC-3 prostate): 3.97 µM

COc1ccc(-c2nsc3c2NC(=O)CC3c2cccc(OC)c2)cc1 (stereo not given)
GI50 (NCI-H460 lung): 0.534 µM | TGI (NCI-H460 lung): 71.8 µM | GI50 (MOLT-4 leukemia): 2.18 µM | TGI (MOLT-4 leukemia): > 100 µM | GI50 (UACC-62 melanoma): 0.865 µM | TGI (UACC-62 melanoma): > 100 µM | GI50 (MALME-3M melanoma): 2.32 µM | TGI (MALME-3M melanoma): 66.1 µM | GI50 (IGROV1 ovarian): 2.18 µM | TGI (IGROV1 ovarian): > 100 µM | GI50 (SK-MEL-28 melanoma): 10.7 µM | TGI (SK-MEL-28 melanoma): > 100 µM | GI50 (SK-MEL-2 melanoma): 3.81 µM | TGI (SK-MEL-2 melanoma): 64.1 µM | GI50 (HT29 colon): 0.427 µM | TGI (HT29 colon): > 100 µM | GI50 (SF-268 CNS): 4.53 µM | TGI (SF-268 CNS): > 100 µM | GI50 (HCT-116 colon): 0.531 µM | TGI (HCT-116 colon): > 100 µM | GI50 (SNB-75 CNS): 1.3 µM | GI50 (OVCAR-4 ovarian): 7.4 µM | TGI (OVCAR-4 ovarian): > 100 µM | GI50 (LOX IMVI melanoma): 0.689 µM | TGI (LOX IMVI melanoma): > 100 µM | GI50 (KM12 colon): 0.505 µM | TGI (KM12 colon): > 100 µM | GI50 (NCI-H226 lung): 17.5 µM | TGI (NCI-H226 lung): > 100 µM | GI50 (SF-295 CNS): 1.54 µM | TGI (SF-295 CNS): 12.4 µM | GI50 (UACC-257 melanoma): 12.9 µM | TGI (UACC-257 melanoma): > 100 µM | GI50 (NCI/ADR-RES ovarian): 0.42 µM | TGI (NCI/ADR-RES ovarian): 2.27 µM | GI50 (HCC-2998 colon): 2.13 µM | TGI (HCC-2998 colon): > 100 µM | GI50 (MCF7 breast): 0.55 µM | TGI (MCF7 breast): > 100 µM | GI50 (HL-60(TB) leukemia): 1.35 µM | TGI (HL-60(TB) leukemia): 17.4 µM | GI50 (CAKI-1 renal): 1.38 µM | TGI (CAKI-1 renal): > 100 µM | GI50 (M14 melanoma): 0.613 µM | TGI (M14 melanoma): > 100 µM | GI50 (SK-OV-3 ovarian): 1.45 µM | TGI (SK-OV-3 ovarian): 7.43 µM | GI50 (SN12C renal): 3.81 µM | TGI (SN12C renal): > 100 µM | GI50 (SK-MEL-5 melanoma): 0.445 µM | TGI (SK-MEL-5 melanoma): 17.5 µM | GI50 (MDA-MB-435): 0.282 µM | TGI (MDA-MB-435): 0.868 µM | GI50 (CCRF-CEM leukemia): 2.08 µM | TGI (CCRF-CEM leukemia): > 100 µM | GI50 (RPMI-8226 leukemia): 1.61 µM | TGI (RPMI-8226 leukemia): > 100 µM | GI50 (NCI-H522 lung): 0.702 µM | TGI (NCI-H522 lung): 5.28 µM | GI50 (A549 NSCLC): 0.714 µM | TGI (A549 NSCLC): > 100 µM | GI50 (SF-539 CNS): 1.87 µM | TGI (SF-539 CNS): 6.7 µM | GI50 (ACHN renal): 4.87 µM | TGI (ACHN renal): > 100 µM | GI50 (T-47D breast): 0.871 µM | TGI (T-47D breast): > 100 µM | GI50 (HS 578T breast): 1.34 µM | TGI (HS 578T breast): 16.9 µM | GI50 (HOP-62 NSCLC): 2.41 µM | TGI (HOP-62 NSCLC): 33.9 µM | GI50 (U251 CNS): 1.83 µM | TGI (U251 CNS): > 100 µM | GI50 (786-0 renal): 12.5 µM | TGI (786-0 renal): > 100 µM | GI50 (SNB-19 CNS): 3.47 µM | TGI (SNB-19 CNS): > 100 µM | GI50 (HCT-15 colon): 0.527 µM | TGI (HCT-15 colon): > 100 µM | GI50 (OVCAR-8 ovarian): 3.22 µM | TGI (OVCAR-8 ovarian): > 100 µM | GI50 (K-562 leukemia): 0.358 µM | TGI (K-562 leukemia): > 100 µM | GI50 (A498 renal): 0.408 µM | TGI (A498 renal): 5.02 µM | GI50 (COLO 205 colon): 0.801 µM | TGI (COLO 205 colon): 6.92 µM | GI50 (MDA-MB-231 breast): 1.17 µM | TGI (MDA-MB-231 breast): > 100 µM | GI50 (BT-549 breast): 2.87 µM | TGI (BT-549 breast): > 100 µM | GI50 (SW-620 colon): 0.412 µM | TGI (SW-620 colon): > 100 µM | GI50 (OVCAR-3 ovarian): 0.705 µM | TGI (OVCAR-3 ovarian): 4.41 µM | GI50 (UO-31 renal): 3.1 µM | TGI (UO-31 renal): > 100 µM | GI50 (DU-145 prostate): 2.59 µM | TGI (DU-145 prostate): 19.1 µM | GI50 (NCI-H23 lung): 2.59 µM | TGI (NCI-H23 lung): > 100 µM | GI50 (OVCAR-5 ovarian): 3.79 µM | TGI (OVCAR-5 ovarian): > 100 µM | GI50 (HOP-92 NSCLC): 2.31 µM | TGI (HOP-92 NSCLC): 43 µM | GI50 (RXF 393 renal): 2.29 µM | TGI (RXF 393 renal): 8.95 µM | GI50 (PC-3 prostate): 2.45 µM | TGI (PC-3 prostate): > 100 µM

CC(=O)c1c(O)ccc2c1c1c(n2C)C(=O)c2ccccc2C1=O
TGI (NCI-H460 lung): > 100 µM | TGI (MOLT-4 leukemia): > 100 µM | TGI (SK-MEL-2 melanoma): > 100 µM | TGI (HT29 colon): > 100 µM | TGI (SF-268 CNS): 7.97 µM | TGI (HCT-116 colon): > 100 µM | TGI (SNB-75 CNS): 5.97 µM | TGI (LOX IMVI melanoma): > 100 µM | TGI (SF-295 CNS): > 100 µM | TGI (EKVX NSCLC): > 48.5 µM | TGI (UACC-257 melanoma): > 100 µM | TGI (HCC-2998 colon): 1.36 µM | TGI (MCF7 breast): > 21 µM | TGI (HL-60(TB) leukemia): > 100 µM | TGI (CAKI-1 renal): > 100 µM | TGI (SK-OV-3 ovarian): > 100 µM | TGI (SK-MEL-5 melanoma): > 100 µM | TGI (CCRF-CEM leukemia): > 44.7 µM | TGI (A549 NSCLC): > 100 µM | TGI (SF-539 CNS): > 100 µM | TGI (T-47D breast): 4.46 µM | TGI (HS 578T breast): > 100 µM | TGI (HOP-62 NSCLC): > 100 µM | TGI (U251 CNS): > 100 µM | TGI (786-0 renal): > 100 µM | TGI (SNB-19 CNS): > 100 µM | TGI (HCT-15 colon): > 100 µM | TGI (OVCAR-8 ovarian): > 100 µM | TGI (K-562 leukemia): > 100 µM | TGI (A498 renal): > 100 µM | TGI (COLO 205 colon): > 100 µM | TGI (MDA-MB-231 breast): > 100 µM | TGI (BT-549 breast): > 100 µM | TGI (OVCAR-3 ovarian): 6.47 µM | TGI (TK-10 renal): > 28.1 µM | TGI (DU-145 prostate): > 100 µM | TGI (OVCAR-5 ovarian): > 100 µM | TGI (RXF 393 renal): > 100 µM

— PubChem BioAssay (NCI)
